Test: molar heat capacity at constant pressure
Details: Gas, Flow calorimetry

CC(F)(F)F [1,1,1-trifluoroethane]
Details	molar heat capacity at constant pressure [J/K/mol]
311.15 K, 1600 kPa	120.18
317.15 K, 1800 kPa	125.89
318.15 K, 1600 kPa	111.77
318.15 K, 2000 kPa	139.51
324.15 K, 2200 kPa	145.31
326.15 K, 2400 kPa	161.69
327.15 K, 2400 kPa	160.77
338.15 K, 2400 kPa	130.6
341.15 K, 2200 kPa	117.24
343.15 K, 2400 kPa	124.8
